Test [1] concerns the target T1, DesII (Streptomyces venezuelae, UniProt Q9ZGH1).
T1 construct: C-terminal His6-tag kept; selenomethionine derivative used for phasing; [Fe4S4] cluster; N-terminal 7-9 residues disordered in crystal
Kind of test: X-ray crystal structure, […] Å. In kind it is binding.

In test [2] the target is T2, DesII (second DesII expression construct) (Streptomyces venezuelae, UniProt Q9ZGH1).
T2 construct: pSJ5 vector, TrxA fusion, His8-tag and TEV site; N-terminal tag removed by TEV; [Fe4S4] cluster; loop D323-E337 disordered
T2 sequence (Q9ZGH1 1-485): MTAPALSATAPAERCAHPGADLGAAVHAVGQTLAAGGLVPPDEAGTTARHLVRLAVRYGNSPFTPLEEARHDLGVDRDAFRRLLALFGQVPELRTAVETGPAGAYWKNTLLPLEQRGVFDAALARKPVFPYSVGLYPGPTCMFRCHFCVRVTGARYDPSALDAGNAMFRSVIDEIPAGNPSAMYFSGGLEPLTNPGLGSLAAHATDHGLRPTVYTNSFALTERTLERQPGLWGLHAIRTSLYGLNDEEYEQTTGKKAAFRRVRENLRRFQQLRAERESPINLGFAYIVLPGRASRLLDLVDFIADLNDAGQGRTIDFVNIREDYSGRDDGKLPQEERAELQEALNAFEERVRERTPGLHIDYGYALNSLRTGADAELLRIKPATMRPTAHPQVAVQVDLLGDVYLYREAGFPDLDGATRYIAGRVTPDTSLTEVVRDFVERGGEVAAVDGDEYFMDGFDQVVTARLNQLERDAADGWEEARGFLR
Put plainly: X-ray crystal structure, […] Å. In kind it is binding. As to conditions: coordinates fourth iron of [Fe4S4] cluster in one monomer; pH 6.0 crystals.

Test [3] addresses T1, DesII. Kind of test: deaminase activity assay. The class given is biochemical. The note with it: deamination.
The target in test [4] is T3, DesII (Streptomyces venezuelae, UniProt Q9ZGH1, E408Q).
T3 construct: C-terminal His6-tag kept; selenomethionine derivative used for phasing; [Fe4S4] cluster; N-terminal 7-9 residues disordered in crystal
T3 sequence (Q9ZGH1 whole entry E408Q, the tested form may be a part): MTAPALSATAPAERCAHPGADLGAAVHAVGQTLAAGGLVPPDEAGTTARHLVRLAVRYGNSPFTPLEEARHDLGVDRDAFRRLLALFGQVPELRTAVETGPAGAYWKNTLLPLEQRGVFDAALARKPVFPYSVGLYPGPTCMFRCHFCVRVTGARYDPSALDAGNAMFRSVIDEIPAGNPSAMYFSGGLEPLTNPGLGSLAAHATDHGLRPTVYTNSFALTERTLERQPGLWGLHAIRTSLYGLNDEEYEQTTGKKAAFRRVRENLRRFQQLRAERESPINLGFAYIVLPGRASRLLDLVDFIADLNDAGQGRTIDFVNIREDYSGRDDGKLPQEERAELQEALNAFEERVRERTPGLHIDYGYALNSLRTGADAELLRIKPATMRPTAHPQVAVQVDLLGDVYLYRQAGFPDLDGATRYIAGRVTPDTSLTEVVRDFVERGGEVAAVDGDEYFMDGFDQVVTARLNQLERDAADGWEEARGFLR
Put plainly: deaminase activity assay. In kind it is biochemical. As to conditions: deamination.

Test [5] concerns the target T4, DesII (Streptomyces venezuelae, UniProt Q9ZGH1, E408A).
T4 construct: C-terminal His6-tag kept; selenomethionine derivative used for phasing; [Fe4S4] cluster; N-terminal 7-9 residues disordered in crystal
Put plainly: deaminase activity assay. The class given is biochemical. The note with it: deamination.

T4 sequence (Q9ZGH1 whole entry E408A, the tested form may be a part): as the sequence (Q9ZGH1 whole entry E408Q, the tested form may be a part) above, with Q408A counted along it

Take `C[S+](CC[C@H](N)C(=O)O)C[C@H]1O[C@@H](n2cnc3c(N)ncnc32)[C@H](O)[C@@H]1O` (stereo partly drawn) [SAM, S-adenosyl-L-methionine]: the “X-ray crystal structure, 2.33 Å” value at DesII [1] (coordinated to [Fe4S4] cluster, chains a and c) was “A single molecule of SAM was found coordinated to the [Fe4S4] cluster in chains a”.

For `CSCC[C@H](N)C(=O)O` [Met, methionine], the “X-ray crystal structure, 2.04 Å” value in test [2] was “coordinated with a water molecule and the other with methionine”. Moreover, the “X-ray crystal structure, 2.33 Å” value at DesII [1] (active sites of chains b and d) is “with methionine bound in the active sites of chains b and d”.

Turning to `Cc1cn([C@H]2C[C@H](O)[C@@H](COP(=O)(O)OP(=O)(O)O[C@H]3O[C@H](C)[C@@H](N)[C@H](O)[C@H]3O)O2)c(=O)[nH]c1=O` [compound 1, TDP-4-amino-4,6-dideoxy-D-glucose], the deaminase activity assay entry on DesII [3] was “found to retain deaminase activity comparable to that of wildtype enzyme”; on DesII [4], “E408A and E408Q mutants were both constructed and found to retain deaminase activity”; on DesII [5] it was “E408A and E408Q mutants were both constructed and found to retain deaminase activity”.

(Values after paper PMC11434129, “Mechanistic Insights from the Crystal Structure and Computational Analysis of the Radical SAM Deaminase DesII” (Advanced Science, 2024).)
